Series [1] has as its system Homo sapiens. Briefly: Pharmacokinetic parameters for Ramipril, and its active metabolite Ramiprilat evaluated after oral administration of Ramipril. The conditions noted are these: in vivo, dosed compound id 51, dosed compound name RAMIPRIL, regimen Single dose; for F: at 5 mg. The series is classed as ADME, organism-based.
In series [2] the test system is Homo sapiens. Nature of the series: Half-life of Ramiprilat, active metabolite of Ramipril, evaluated after oral administration of multiple doses of 5 mg Ramipril. It is filed as ADME, organism-based. The conditions noted are these: in vivo, dose 5 to 10 mg, dosed compound id 51, dosed compound name RAMIPRIL, regimen Multiple dose, tissue Plasma.

With `C[C@H](N[C@@H](CCc1ccccc1)C(=O)O)C(=O)N1[C@H](C(=O)O)C[C@@H]2CCC[C@@H]21` [RAMIPRILAT], in the series with Homo sapiens [1] (tissue Plasma), the F is recorded as 44% and the Tmax lay within 2 to 4 h. The t1/2 in the series on Homo sapiens [2] lay within 13 to 17 h.

Turning to `CCOC(=O)[C@H](CCc1ccccc1)N[C@@H](C)C(=O)N1[C@H](C(=O)O)C[C@@H]2CCC[C@@H]21` [RAMIPRIL], in the series with Homo sapiens [1] (tissue Plasma), the F is reported as 28%, the Absorption was 50 to 60% and the Tmax came out at 1 h. The Excretion in the series on Homo sapiens [1] (tissue Feces) is recorded as 40%. Further, in the series on Homo sapiens [1] (tissue Urine), the Excretion is recorded as 60%.

The values are drawn from ChEMBL document CHEMBL3832056, “DailyMed|setid=5ad109ec-1fff-498c-bc91-e2e5481122bc | RAMIPRIL- ramipril capsule|Lake Erie Medical DBA Quality Care Products LLC”.
